Results as given in PMC2119337 (The Journal of Experimental Medicine, 1992).
No end group written: not given here.

Columns and labels:
[1] = biological target: T1, A alpha uA beta u (MHC class II molecules) (Mus musculus, UniProt P06344+P14438); conditions: cited from earlier work
T1 sequence (P14438 1-227): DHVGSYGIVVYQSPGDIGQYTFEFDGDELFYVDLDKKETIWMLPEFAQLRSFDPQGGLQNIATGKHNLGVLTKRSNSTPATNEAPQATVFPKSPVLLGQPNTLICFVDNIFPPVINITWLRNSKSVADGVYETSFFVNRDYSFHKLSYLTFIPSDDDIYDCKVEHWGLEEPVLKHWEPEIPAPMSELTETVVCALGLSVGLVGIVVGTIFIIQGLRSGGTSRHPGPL
T1 sequence (P06344 28-263): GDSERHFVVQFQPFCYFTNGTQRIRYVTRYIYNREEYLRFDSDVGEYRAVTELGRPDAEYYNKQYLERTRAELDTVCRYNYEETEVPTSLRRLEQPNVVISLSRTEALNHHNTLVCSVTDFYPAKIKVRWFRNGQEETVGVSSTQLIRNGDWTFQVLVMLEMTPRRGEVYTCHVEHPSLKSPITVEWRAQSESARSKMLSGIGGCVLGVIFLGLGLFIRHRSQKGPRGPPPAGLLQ

(PL/J x SJL/J)F1 mice [2] = type: in vivo; conditions: Table 1, observed 30-35 d, three experiments
(PL/J x SJL/J)F1 mice [3] = experiment: Inhibition of EAE by coimmunization of competitor peptide with Ac1-11; type: in vivo; conditions: Table 2, Ac1-11 25 nmol alone or with competitor 500 nmol

Substance: Ac1-11: immunodominant N-terminal myelin basic protein (MBP) peptide, wild type (Ac-MGNHSGKRELS; UniProt P04370 1-11, looked up, fragment)
- Binding to AαuAβu [1]: poor binder
- Incidence of EAE (mice with disease/total) ((PL/J x SJL/J)F1 mice [2]; 100 nmol peptide in CFA s.c.): 27/31
- Percent incidence of EAE ((PL/J x SJL/J)F1 mice [2]; […]): 87%
- Day of onset ((PL/J x SJL/J)F1 mice [3]): 12.75
- Mean clinical scores ((PL/J x SJL/J)F1 mice [3]; grades 1-5): 3.4
